Experimental data: paper PMC7883289, “Synthesis of Paeonol-Ozagrel Conjugate: Structure Characterization and In Vivo Anti-Ischemic Stroke potential” (Frontiers in Pharmacology, 2021)

Key:
[1] = tested on: middle cerebral artery occlusion (MCAO) rats; assay: Measurement of infarct volume by TTC staining in MCAO rats; format: in vivo; conditions: 24 h after reperfusion, single iv dose: paeonol and OS 3 mg/kg, POC 4.5 mg/kg, n = 6
Experimental: Male Sprague Dawley (SD) rats weighing among 220 g-230 g (Anhui Medicine University, Hefei, China; certificate number: SCXK20190,003) were housed under ad libitum access to food and water with a standardized light-dark cycle condition (25 ± 2°C, 12-hour light/dark cycle). All the experimental protocols were performed in accordance with the Institutional Animal Care and Use Committee of Anhui University of Chinese Medicine (Animal ethics number: AHUCM-rats-2019001). We used the minimal number of study animals (n = 6 rats in each group for different experiments). The rats were fastened upon the operating table in a supine position after being anesthetized with 2% pelltobarbitalum natricum (50 mg/kg). After disinfection of the skin within close proximity of the operative region, the right common carotid artery (CCA), external carotid artery (ECA) and internal carotid artery (ICA) were exposed with blunt dissection. The CCA was temporarily ligated and the ECA were permanently ligated ([Liu et al., 2016]). A nylon monofilament surgical thread was introduced into the ICA to block the MCA when the blunted distal end met resistance. After 2 h of occlusion, reperfusion was accomplished to restore blood supply to the MCA area by removing the filament ([Li et al., 2009]; [Zhai et al., 2017]). […] Rats were split randomly into five groups, including the sham, model, paeonol, OS and POC group. After 2 h of reperfusion, the paeonol and OS groups received the drug by intravenous injection at a single dose of 3 mg/kg ([Imamura et al., 2003]; [Park et al., 2010]; [Gai et al., 2019]), which the doses of paeonol and OS uesd previously were benificial in rats and the dose of OS is within the clinical dose range. […] Cerebral infarction volume was determined using TTC staining. […] The infarction and total brain volume were quantified using ImageJ software. The infarct volume was calculated as a ratio of the infarcted tissue relative to the total area of the whole-brain coronal section ([Ye and Gao, 2008]; [Katayama et al., 2017]). […]

[2] = tested on: middle cerebral artery occlusion (MCAO) rats; assay: Evaluation of neurological deficit (Longa score) in MCAO rats; format: in vivo; conditions: 24 h after reperfusion, single iv dose 2 h after reperfusion: paeonol and OS 3 mg/kg, POC 4.5 mg/kg, n = 6
Experimental: Male Sprague Dawley (SD) rats weighing among 220 g-230 g (Anhui Medicine University, Hefei, China; certificate number: SCXK20190,003) were housed under ad libitum access to food and water with a standardized light-dark cycle condition (25 ± 2°C, 12-hour light/dark cycle). All the experimental protocols were performed in accordance with the Institutional Animal Care and Use Committee of Anhui University of Chinese Medicine (Animal ethics number: AHUCM-rats-2019001). We used the minimal number of study animals (n = 6 rats in each group for different experiments). The rats were fastened upon the operating table in a supine position after being anesthetized with 2% pelltobarbitalum natricum (50 mg/kg). After disinfection of the skin within close proximity of the operative region, the right common carotid artery (CCA), external carotid artery (ECA) and internal carotid artery (ICA) were exposed with blunt dissection. The CCA was temporarily ligated and the ECA were permanently ligated ([Liu et al., 2016]). A nylon monofilament surgical thread was introduced into the ICA to block the MCA when the blunted distal end met resistance. After 2 h of occlusion, reperfusion was accomplished to restore blood supply to the MCA area by removing the filament ([Li et al., 2009]; [Zhai et al., 2017]). […] Rats were split randomly into five groups, including the sham, model, paeonol, OS and POC group. […] Neurological deficit was evaluated 24 h after reperfusion (blinded to experimenters). […] The rating score was assessed by the following standard: no neurological deficit, 0; failure to extend left forepaw fully, one; spontaneous circling to the left, two; falling to the left, three; inability to walk spontaneously and coma of consciousness, 4. […] Neurological scores for each group were calculated using six rats according to a sample size calculation (α err prob = 0.05, 1-β err prob = 0.95) and references ([Katayama et al., 2017]; [[…] al., 2019]; [Zheng et al., 2019]).

Structure (SMILES)	cerebral infarction volume percentage [1]	neurological deficits score (Longa, 0-4) [2]
O=C([O-])/C=C/c1ccc(Cn2ccnc2)cc1.[Na+] [OS, Ozagrel sodium]	18.68% ± 1.35	2.00 ± 0.63
COc1ccc(C(C)=O)c(O)c1 [paeonol]	20.87% ± 1.43	2.50 ± 0.55
